Experimental data published in article PMC12537910, “Mosquito salivary sialokinin reduces monocyte activation and chikungunya virus-induced inflammation via neurokinin receptors” (Nature Communications, 2025).
Several values for one entry are separate records, joined by “and”; a condition that tells them apart may be missing. Identical values can stand only once. No end group written: not given here.

Assays:
Assay type in all cases: cell-based
[1] = system: Akt; assay: Western blot P-Akt/Akt, human monocytes; settings: for effect on sialokinin-stimulated phosphorylation of Akt: antagonist pre-treatment
Description: (§1) DEG analysis was performed using edgeR, with multiple testing corrected via the Benjamini–Hochberg FDR method. […] Relative expression levels of P-PI3K/PI3K (n = 4 biological replicates) and P-Akt/Akt (n = 5 biological replicates) in monocytes at the 20-min time point were quantified with ImageJ. Levels are expressed as fold change relative to the non-treated controls. Bar graphs represent the mean ± standard deviation (SD). […] CD169 levels at 24 h post-treatment were measured by mean fluorescence intensity (MFI) and expressed as fold change relative to non-treated controls. Statistical comparisons were performed using paired two-tailed t-test or Wilcoxon signed-rank test, depending on data distribution.
(§2) Freshly purified human monocytes and six-day-differentiated MDMs ([…] cells/well) were incubated with or without sialokinin peptides in complete IMDM supplemented with 10% (vol/vol) HS (Sigma-Aldrich) and 1% (vol/vol) penicillin-streptomycin. Untreated monocytes and MDMs served as no-treatment controls.
(§3) To detect the phosphorylation status of PI3K/Akt kinases following sialokinin stimulation, cells were lysed with lysis buffer (Cell Signaling Technology) containing 2 mM PMSF. Lysates were separated by SDS-PAGE and subjected to western blotting using the following antibodies: P-PI3K (p85; Tyr458/p55; Tyr199, Cell Signaling Technology, 1:2000), PI3K (p85, Cell Signaling Technology, 1:2000), P-Akt (Ser473, Cell Signaling Technology, 1:2000), and Akt (Cell Signaling Technology, 1:2000). Signal intensities were visualized using a ChemiDoc imaging system (Bio-Rad) and quantified using Image Lab software version 6.0.1 (Bio-Rad).

[2] = target: T1, human NK1R (Homo sapiens, UniProt P25103)
T1 construct: expressed in transfected cells; host or cells: CHO (CHO-K1) cells, stably transfected; gift from Dr Shinya Oishi, Kyoto University
T1 sequence (P25103 whole entry): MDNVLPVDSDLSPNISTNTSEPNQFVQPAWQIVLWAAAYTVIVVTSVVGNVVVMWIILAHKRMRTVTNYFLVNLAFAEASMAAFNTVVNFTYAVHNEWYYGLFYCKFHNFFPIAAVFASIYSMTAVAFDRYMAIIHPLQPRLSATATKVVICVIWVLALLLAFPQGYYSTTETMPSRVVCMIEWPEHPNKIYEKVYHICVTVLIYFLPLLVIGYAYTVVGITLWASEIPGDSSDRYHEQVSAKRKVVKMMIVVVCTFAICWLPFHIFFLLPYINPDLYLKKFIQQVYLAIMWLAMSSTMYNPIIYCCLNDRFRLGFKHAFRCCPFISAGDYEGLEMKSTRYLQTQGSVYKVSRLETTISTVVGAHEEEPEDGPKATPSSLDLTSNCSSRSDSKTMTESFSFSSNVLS
Source text: (§4) Supplementary Fig. 1: Molecular properties of sialokinin and its binding affinities to human neurokinin
(§5) (1 picture or pasted object on this page, not shown here)

[3] = system: primary human monocytes; assay: CD169 expression after antagonist/inhibitor pre-treatment and sialokinin, monocytes; settings: for CD 169 expression (MFI): monocytes 24 h, n = 5; for effect on sialokinin-mediated downregulation of CD169: pre-treatment 30 min before sialokinin, monocytes
Description: as §1, §2
Following harvesting, human monocytes and MDMs were specifically stained for the surface markers: CD45, CD14, CCR2, HLA-DR, CD16, CD11b, and CD169 (for monocytes); or CD45, CD14, HLA-DR, CD64, CD86, CD163, CD206, and CD169 (for MDMs). Dead cells were excluded by staining with the LIVE/DEAD Fixable Aqua Dead Cell Stain Kit (Life Technologies). The stained cells were subsequently incubated with FACS lysing solution (BD Biosciences) to lyse the red blood cells. Data were acquired on a Fortessa flow cytometer (BD Biosciences) with BD FACSDiva software version 9.0. Data analysis was performed using FlowJo version 9.3.2 (Tree Star, Inc.).

[4] = system: PI3K; assay: Western blot P-PI3K/PI3K, human monocytes; settings: for effect on sialokinin-stimulated phosphorylation of PI3K: antagonist pre-treatment
Description: as §1, §2, §3

[5] = target: T1, human NK1R; assay: Calcium flux assay, CHO cells expressing human NK1R; settings: CHO-K1 cells expressing human NK1R; FLIPR; mean ± SEM of three independent experiments in triplicate; read-out: EC50 (peak calcium response)
Description: (§6) We assessed the binding affinity of sialokinin I, the predominant form in Aedes saliva, for human NK receptors using a calcium flux assay.
(§7) Calcium flux assay was carried out on CHO cells stably transfected with one of the human NK receptors (NK1R, NK2R, or NK3R). CHO cells were seeded at a density of 70,000 cells/well in 100 µL of Ham’s F-12 media in a black 96-well clear-bottom plate (Greiner). After overnight incubation, the media was replaced with Calcium 6 assay dye from Molecular Devices (1:1 dilution with buffer solution of 1× HBSS containing 20 mM HEPES) followed by incubation for 2 h at 37 °C for the absorption of dye into the cytoplasm. The intracellular calcium ion flux analysis was performed at different concentrations of sialokinin (tenfold dilution) using a FLIPR Tetra instrument (Molecular Devices). Fluorescence signal was recorded at excitation and emission wavelengths of 485 nm and 535 nm, respectively. The change in fluorescence is presented as the percent change with respect to baseline fluorescence. EC50 values were determined from dose-response curves plotted using Prism 5 (GraphPad).
as §4, §5

[6] = target: T2, human NK3R (Homo sapiens, UniProt P29371); assay: Calcium flux assay, CHO cells expressing human NK3R; settings: CHO-K1 cells expressing human NK3R; FLIPR; mean ± SEM of three independent experiments in triplicate; read-out: EC50 (peak calcium response)
T2 construct: expressed in transfected cells; host or cells: CHO (CHO-K1) cells, stably transfected; gift from Dr Shinya Oishi, Kyoto University
T2 sequence (P29371 1-465): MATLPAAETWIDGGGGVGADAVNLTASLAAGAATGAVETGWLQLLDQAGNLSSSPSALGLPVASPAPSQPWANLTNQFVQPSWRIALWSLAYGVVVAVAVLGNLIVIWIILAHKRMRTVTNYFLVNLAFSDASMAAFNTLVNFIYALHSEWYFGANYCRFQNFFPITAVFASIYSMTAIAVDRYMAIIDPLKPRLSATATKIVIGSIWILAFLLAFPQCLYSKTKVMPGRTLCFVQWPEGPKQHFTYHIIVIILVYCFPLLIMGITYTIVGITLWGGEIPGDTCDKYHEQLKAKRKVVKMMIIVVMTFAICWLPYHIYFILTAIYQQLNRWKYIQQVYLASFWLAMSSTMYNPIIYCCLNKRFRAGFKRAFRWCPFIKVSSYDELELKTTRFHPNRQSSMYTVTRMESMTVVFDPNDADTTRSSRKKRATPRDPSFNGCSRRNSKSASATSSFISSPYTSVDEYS
Description: as §6, §7, §4, §5

[7] = target: T3, human NK2R (Homo sapiens, UniProt P21452); assay: Calcium flux assay, CHO cells expressing human NK2R; settings: CHO-K1 cells expressing human NK2R; FLIPR; mean ± SEM of three independent experiments in triplicate; read-out: EC50 (peak calcium response)
T3 construct: expressed in transfected cells; host or cells: CHO (CHO-K1) cells, stably transfected; gift from Dr Shinya Oishi, Kyoto University
T3 sequence (P21452 1-398): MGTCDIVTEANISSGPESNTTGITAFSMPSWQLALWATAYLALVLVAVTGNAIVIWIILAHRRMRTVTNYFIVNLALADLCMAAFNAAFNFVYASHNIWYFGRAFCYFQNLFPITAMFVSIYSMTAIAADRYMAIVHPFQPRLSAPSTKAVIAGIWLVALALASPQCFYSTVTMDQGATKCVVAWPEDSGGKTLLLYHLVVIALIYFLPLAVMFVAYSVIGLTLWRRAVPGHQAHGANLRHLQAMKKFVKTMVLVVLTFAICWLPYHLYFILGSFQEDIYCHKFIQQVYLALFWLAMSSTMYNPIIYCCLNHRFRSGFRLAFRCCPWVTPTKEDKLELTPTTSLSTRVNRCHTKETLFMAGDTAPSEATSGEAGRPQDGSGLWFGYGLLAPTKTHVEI
Description: as §6, §7, §4, §5

[8] = GR-159897 + sialokinin, individual replicates

Molecule: COc1ccccc1CN[C@H]1C2CCN(CC2)[C@H]1C(c1ccccc1)c1ccccc1 [CP-96345]
- effect on sialokinin-stimulated phosphorylation of Akt [1]: reduced
- effect on Emax of sialokinin at NK1R [2]: without affecting the Emax value
- CD 169 expression (MFI) ([3]; CP-96345 + sialokinin, individual replicates): 387 MFI and 396 MFI and 194 MFI and 919 MFI and 1966 MFI
- CD 169 expression (MFI) ([3]; CP-96345 inhibitor only, individual replicates): 586 MFI and 529 MFI and 236 MFI and 1225 MFI and 3060 MFI
- effect on sialokinin-mediated downregulation of CD169 [3]: only partially neutralized
- effect on sialokinin-stimulated phosphorylation of PI3K [4]: reduced

Molecule: COC1(C[S@@+]([O-])c2ccccc2)CCN(CCc2c[nH]c3ccc(F)cc23)CC1 [GR-159897]
- effect on sialokinin-stimulated phosphorylation of Akt [1]: reduced
- P-Akt/Akt (expression relative to untreated control) ([1]; pre-treatment with NK2R antagonist then sialokinin, 20 min, individual replicates, n = 5): 0.9906 and 1.222 and 1.192 and 0.816 and 0.7836
- CD169 relative fold change [3, 8]: 0.8629 and 0.8036 and 0.6381 and 0.8197 and 0.5757
- CD 169 expression (MFI) [3, 8]: 1530 MFI and 1669 MFI and 977 MFI and 2300 MFI and 1731 MFI
- CD 169 expression (MFI) ([3]; GR-159897 inhibitor only, individual replicates): 1773 MFI and 2077 MFI and 1531 MFI and 2806 MFI and 3007 MFI
- effect on sialokinin-mediated downregulation of CD169 [3]: only partially neutralized
- effect on sialokinin-stimulated phosphorylation of PI3K [4]: reduced
- P-PI3K/PI3K (expression relative to untreated control) ([4]; pre-treatment with NK2R antagonist then sialokinin, 20 min, individual replicates, n = 4): 0.877 and 0.977 and 0.987 and 0.967

Molecule: O=c1cc(N2CCOCC2)oc2c(-c3ccccc3)cccc12 [LY-294002]
- CD 169 expression (MFI) ([3]; LY-294002 + sialokinin, individual replicates): 182 MFI and 164 MFI and 106 MFI and 91.9 MFI and 143 MFI
- CD 169 expression (MFI) ([3]; LY-294002 inhibitor only, individual replicates): 216 MFI and 280 MFI and 107 MFI and 103 MFI and 164 MFI
- effect on sialokinin-mediated downregulation of CD169 [3]: completely blocked

Molecule: NTGDKFYGLM-NH2 [Sialokinin I]
- EC50 [5]: 0.052 ± 0.028 nM
- EC50 [6]: 1.29 ± 0.281 nM
- EC50 [7]: 0.288 ± 0.107 nM
